Data taken from patent US20210292807A1, “METHOD FOR TESTING ANTIMICROBIAL SUSCEPTIBILITY” (priority 2017, published 2021).
“And” between values parts separate entries of the source, which are not always exact repeats. Equal entries are not always repeated. Where two headings read alike, the source gives them in different places.

Tested on: Klebsiella isolates
Assay: Acoustic flow cytometry-assisted susceptibility test (FAST), MICFAST and S/NS, Klebsiella isolates
Type: cell-based, Klebsiella pneumoniae, Klebsiella oxytoca
Protocol: A 1 mL aliquot of bacterial suspension was centrifuged, washed and resuspended in 1 mL filtered Hank's Buffered Salt Solution (HBSS; comprising about 0.137 M NaCl, about 5.4 mM KCl, about 0.25 mM Na2HPO4, about 0.1 g Glucose, about 0.44 mM KH2PO4, 1.3 mM CaCl2), 1.0 mM MgSO4, about 1.3 mM CaCl2), 1.0 mM MgSO4, and about 4.2 mM NaHCO3) and diluted in series (e.g., in a 1:10 serial dilution) to a final 1:1000 dilution.
One μL (microliter) of SYTO 9 stain (e.g., ThermoFisher Scientific) working stock solution was added to the final dilution at a final concentration of 5 μM and incubated for 5 minutes before counting bacterial events by acoustic flow cytometer (AFC) (Attune, ThermoFisher, Eugene, Oreg., USA), which was used to prepare a standardised inoculum density for susceptibility testing.
An aliquot of bacterial suspension was added to 50 mL centrifuge tubes (Corning, N.Y.) containing 9 mL of pre-warmed (37° C.) filtered MHB to produce a final density of 5×10^5-1×10^6 bacteria per mL. This suspension was incubated at 37° C. with shaking at 100 RPM for 30 minutes to obtain an actively dividing culture. An aliquot of antibiotic working solution from the previously described dilution series (appropriate to the concentration tested) was then added to each tube before a further 30-minute incubation with shaking, during which time a microbroth dilution (MBD) plate was prepared for overnight incubation at 37° C. as previously described in Clinical and Laboratory Standards Institute (2015) Performance Standards for Antimicrobial Susceptibility Testing: Informational Supplement. CLSI document M100-S25. Clinical and Laboratory Standards Institute, 950, West Valley Road, Suite 2500, Wayne, Pa., 19087, USA.
One millilitre of bacterial suspension from each antibiotic concentration was harvested by centrifugation at 7800×g for 5 minutes, washed and diluted 1:10 in filtered HBSS in a light-impermeable microcentrifuge tube, then stained with SYTO 9 stain at a final concentration of 5 μM, and incubated for 5 min before AFC sampling. Hoechst 33342 dye (NucBlue, Thermo Fisher Scientific, Eugene, Oreg., USA) and a SYTO 9/propidium iodide (PI) combination (Thermo Fisher Scientific) were used in a series of replicate experiments.
The acoustic flow cytometer employed was Attune acoustic flow cytometer (Thermo Fisher Scientific), having installed therein a 488 nm blue laser with a 530/30 nm filter on the photomultiplier tube for measuring fluorescence of cells assayed. Alternatively, the Attune NxT acoustic flow cytometer (Thermo Fisher Scientific) can be employed. AFC was calibrated at the beginning of each acquisition session using fluorescently labelled size calibration beads, in accordance with the manufacturer's instructions (ThermoFisher Scientific). The AFC settings were as follows: Forward Scatter (FSC) voltage 3100, FSC threshold 4×1000 AND, blue laser 1 (BL1—530/30 nm) voltage 1900, BL1 threshold 1×1000 AND, high sensitivity, flow rate 25 μL/minute, and an acquisition volume of 125 μL. Acquisition was halted after either collection of 20,000 events across all gates, or after 3 minutes, with each sample acquired in technical triplicate.
Collected data was exported in the FCS 3.0 file format and analysed in Flow v10.0 (FlowJo LLC, Ashland, Oreg., USA) by a single user, blinded to the MIC results by BMD (MICBMD).
Subsequent to quantitative MICFAST determination, the acoustic flow cytometer data were re-analysed in silico to produce a limited sub-set for qualitative susceptibility determination. The six antibiotic dilutions (0 mg/L, 0.25 mg/L, 1 mg/L, 2 mg/L, 4 mg/L and 16 mg/L) most relevant to qualitative susceptibility assessment were used. In silico analysis was restricted to the first technical triplicate of each recorded sample. Gating strategies remained consistent, with the addition of a gate restricting analysis to only those events recorded in the first 60 seconds of acquisition.

[1] = K. pneumoniae isolate 18397, biological replicates
[2] = K. pneumoniae isolate 43292, biological replicates
[3] = K. pneumoniae isolate 43358, biological replicates
[4] = K. pneumoniae isolate 44271, biological replicates
[5] = K. pneumoniae isolate ATCC 700603, biological replicates
[6] = K. pneumoniae isolate ATCC BAA1705, biological replicates
[7] = K. pneumoniae isolate K1, biological replicates
[8] = K. pneumoniae isolate K14, biological replicates
[9] = K. pneumoniae isolate KS11, biological replicates

Structure (SMILES): C[C@@H](O)[C@H]1C(=O)N2C(C(=O)O)=C(S[C@@H]3CN[C@H](C(=O)N(C)C)C3)[C@H](C)[C@H]12 [meropenem]
- MICFAST (K. pneumoniae ATCC 700603 (carbapenem susceptible control), limited clinical screen concentrations): ≤0.25
- MICFAST (K. pneumoniae ATCC BAA1705 (carbapenem resistant control), limited clinical screen concentrations): >16
- FAST S/NS [1]: S (S: MIC ≤2 mg/L)
- MICFAST [1]: ≤0.25 mg/L
- FAST S/NS [2]: S (S: MIC ≤2 mg/L)
- MICFAST [2]: ≤0.25 mg/L
- FAST S/NS [3]: S (S: MIC ≤2 mg/L)
- MICFAST [3]: ≤0.25 mg/L
- FAST S/NS [4]: S (S: MIC ≤2 mg/L)
- MICFAST [4]: 0.5 mg/L
- FAST S/NS [5]: S (S: MIC ≤2 mg/L)
- MICFAST [5]: ≤0.25 mg/L
- FAST S/NS [6]: NS (NS: MIC >2 mg/L)
- MICFAST [6]: 8 mg/L
- FAST S/NS [7]: NS (NS: MIC >2 mg/L)
- MICFAST [7]: 64 mg/L (2×) and 32 mg/L
- FAST S/NS [8]: NS (NS: MIC >2 mg/L)
- MICFAST [8]: 256 mg/L
- MICFAST (K. pneumoniae isolate K16 (IMP-4), rough colony variant): 64 mg/L
- MICFAST (K. pneumoniae isolate K16 (IMP-4), smooth colony variant): 2 mg/L
- MIC (K. pneumoniae isolate K16, subculture of Day 1 meropenem-exposed culture, read-out: MIC by FAST on Day 2): 4 µg/mL
- MICFAST (K. pneumoniae isolate KS1, biological replicates): 4 mg/L and 1 mg/L and 2 mg/L
- FAST S/NS [9]: S (S: MIC ≤2 mg/L)
- MICFAST [9]: 1 mg/L (2×) and 2 mg/L
- MIC (K. pneumoniae susceptible type strain ATCC 700603, read-out: isolate's MIC (new contouring focus formed, FIG. 3A)): 0.25 µg/mL
- susceptibility-associated signature by AFC bi-axial plot (FIG. 3B) (highly resistant clinical K. pneumoniae strain K8, clinically relevant meropenem concentrations): absence of susceptibility-associated signature
- FAST S/NS (isolate 194, Sweden, VIM): NS (NS = MIC >2 mg/L)
- MICFAST (isolate 194, Sweden, VIM): 16 mg/L
- FAST S/NS (isolate 374, Sweden, VIM): NS (NS = MIC >2 mg/L)
- MICFAST (isolate 374, Sweden, VIM): 32 mg/L
- FAST S/NS (isolate 3354, Australia): S (S = MIC ≤2 mg/L)
- MICFAST (isolate 3354, Australia): 0.5 mg/L
- FAST S/NS (isolate 10924, Sweden, KPC): S (S = MIC ≤2 mg/L)
- MICFAST (isolate 10924, Sweden, KPC): 0.5 mg/L
- FAST S/NS (isolate 18397, Australia): S (S = MIC ≤2 mg/L)
- MICFAST (isolate 18397, Australia): ≤0.25 mg/L
- FAST S/NS (isolate 43288, Australia): S (S = MIC ≤2 mg/L)
- MICFAST (isolate 43288, Australia): ≤0.25 mg/L
- FAST S/NS (isolate 43292, Australia): S (S = MIC ≤2 mg/L)
- MICFAST (isolate 43292, Australia): ≤0.25 mg/L
- FAST S/NS (isolate 43358, Australia): S (S = MIC ≤2 mg/L)
- MICFAST (isolate 43358, Australia): ≤0.25 mg/L
- FAST S/NS (isolate 43854, Australia): S (S = MIC ≤2 mg/L)
- MICFAST (isolate 43854, Australia): ≤0.25 mg/L
- FAST S/NS (isolate 44271, Australia): S (S = MIC ≤2 mg/L)
- MICFAST (isolate 44271, Australia): 0.5 mg/L
- FAST S/NS (isolate 51575, Sweden, ESBL): S (S = MIC ≤2 mg/L)
- MICFAST (isolate 51575, Sweden, ESBL): ≤0.25 mg/L
- FAST S/NS (isolate 70708, Sweden, KPC): NS (NS = MIC >2 mg/L)
- MICFAST (isolate 70708, Sweden, KPC): 32 mg/L
- FAST S/NS (isolate 71076, Sweden, KPC): NS (NS = MIC >2 mg/L)
- MICFAST (isolate 71076, Sweden, KPC): 32 mg/L
- FAST S/NS (isolate 200822, Sweden, KPC): NS (NS = MIC >2 mg/L)
- MICFAST (isolate 200822, Sweden, KPC): 8 mg/L
- FAST S/NS (isolate 270902, England): S (S = MIC ≤2 mg/L)
- MICFAST (isolate 270902, England): ≤0.25 mg/L
- FAST S/NS (isolate 500638, Sweden, pAmpC): S (S = MIC ≤2 mg/L)
- MICFAST (isolate 500638, Sweden, pAmpC): 2 mg/L
- FAST S/NS (isolate 515870, Sweden, ESBL): S (S = MIC ≤2 mg/L)
- MICFAST (isolate 515870, Sweden, ESBL): ≤0.25 mg/L
